Tests used:
luteinizing hormone (LH) = assay: Plasma r-LH in trunk blood by radioimmunoassay; assay type: in vivo, rat; settings: presumptive proestrus, OVX rats, 10 μg s.c., mean±sem, n=7
uterine horns = assay: Examination of the uterine horns; assay type: in vivo, rat; settings: OVX rats, 10 μg s.c., next day
[1] = 10 μg EB s.c., for up to 30 h in ovariectomized rats; cited from earlier work

SMILES: C[C@]12CC[C@@H]3c4ccc(OC(=O)c5ccccc5)cc4CC[C@H]3[C@@H]1CC[C@@H]2O [EB, estradiol benzoate]
- Plasma r-LH levels (luteinizing hormone (LH)): 7.5 ± 3.1 ng/mL
- uterine horns (uterine horns): markedly distended with fluid
- blood levels of E2 [1]: 100-120 pg E2/ml

From patent US20010011084A1, “USE OF ESTROGEN TO MODIFY THE AMOUNT OF SEROTONIN TRANSPORTER OR ITS MRNA” (priority 1996, published 2001)
